# Source: patent US11059780B2, “Substituted pyrrolidine compound and use thereof” (Takeda Pharmaceutical Company Limited, priority 2017, dated 2021)
# Biological target: T1, human orexin type 2 receptor (hOX2R) (Homo sapiens, UniProt O43614)
# T1 construct: expressed in transfected cells
# T1 sequence (O43614 1-444): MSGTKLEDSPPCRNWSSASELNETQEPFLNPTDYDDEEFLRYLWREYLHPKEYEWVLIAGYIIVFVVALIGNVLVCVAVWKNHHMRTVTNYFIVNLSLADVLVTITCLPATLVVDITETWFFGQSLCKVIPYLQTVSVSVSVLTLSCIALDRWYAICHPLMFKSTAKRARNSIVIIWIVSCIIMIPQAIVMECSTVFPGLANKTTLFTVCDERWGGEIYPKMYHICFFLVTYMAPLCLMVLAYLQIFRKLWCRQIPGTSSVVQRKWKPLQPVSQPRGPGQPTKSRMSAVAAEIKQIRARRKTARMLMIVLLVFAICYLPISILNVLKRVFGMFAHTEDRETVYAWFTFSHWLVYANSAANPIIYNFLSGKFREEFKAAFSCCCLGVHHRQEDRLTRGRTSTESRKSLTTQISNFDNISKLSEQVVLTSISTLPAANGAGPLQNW
# Test: Measurement of orexin type 2 receptor agonist activity (Fluo-4 calcium fluorescence, CHO cells forcibly expressing human OX2 receptor)
# Assay type: cell-based
# Settings: test compound 3 μM, DMSO = 0%, orexin A (human) 10 nM = 100%
# In short: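 CHO-dhfr cells stably expressing human OX2 receptor, loaded with Fluo-4 AM in HBSS/HEPES/BSA with probenecid, then given test compound at 3 μM. Calcium fluorescence recorded for about 2 min 40 s by FDSS; activity normalized to DMSO (0%) and 10 nM human orexin A (100%).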
row,"OX2R agonist activity (3 μM, %)",Compound
1,86%,"CO[C@@H]1CN(C(=O)c2cc(C)ccc2C)C[C@H]1Oc1cccc(CS(=O)(=O)N2CCCC2c2ccccc2Cl)c1 (relative stereo) [Example 37, trans-(3-(3-(((2-(2-chlorophenyl)pyrrolidin-1-yl)sulfonyl)methyl)phenoxy)-4-methoxypyrrolidin-1-yl)(2,5-dimethylphenyl)methanone]"
2,75%,"COc1ccccc1C1CCCN1S(=O)(=O)Cc1cccc(O[C@@H]2CN(C(=O)c3cc(C)ccc3C)C[C@H]2OC)c1 (relative stereo) [Example 83, trans-(2,5-dimethylphenyl)(3-methoxy-4-(3-(((2-(2-methoxyphenyl)pyrrolidin-1-yl)sulfonyl)methyl)phenoxy)pyrrolidin-1-yl)methanone]"
3,79%,"CO[C@@H]1CN(C(=O)c2cc(C)ccc2C)C[C@H]1Oc1cccc(CS(=O)(=O)N2CCCC2c2nccs2)c1 (relative stereo) [Example 40, trans-(2,5-dimethylphenyl)(3-methoxy-4-(3-(((2-(1,3-thiazol-2-yl)pyrrolidin-1-yl)sulfonyl)methyl)phenoxy)pyrrolidin-1-yl)methanone]"
4,74%,"COC1CN(C(=O)c2cc(C)ccc2C)CC1Oc1cccc(NS(=O)(=O)N2CC[C@@H]3C[C@H]32)c1 (relative stereo) [Example 72, trans-N-(3-((1-(2,5-dimethylbenzoyl)-4-methoxypyrrolidin-3-yl)oxy)phenyl)-2-azabicyclo[3.1.0]hexane-2-sulfonamide]"
5,90%,"CO[C@@H]1CN(C(=O)c2cc(C)ccc2C)C[C@H]1Oc1cccc(NS(=O)(=O)N2CCC3(COC3)C2)c1 (relative stereo) [Example 70, trans-N-(3-((1-(2,5-dimethylbenzoyl)-4-methoxypyrrolidin-3-yl)oxy)phenyl)-2-oxa-6-azaspiro[3.4]octane-6-sulfonamide]"
6,55%,"CO[C@@H]1CN(C(=O)c2cc(C)ccc2C)C[C@H]1Oc1cccc(CS(=O)(=O)N2CCC[C@H]2c2ccccn2)c1 [Example 57, (2,5-dimethylphenyl)((3R,4R)-3-methoxy-4-(3-((((2S)-2-(pyridin-2-yl)pyrrolidin-1-yl)sulfonyl)methyl)phenoxy)pyrrolidin-1-yl)methanone]"
7,76%,"CO[C@@H]1CN(C(=O)Oc2c(C)cccc2C)C[C@H]1Oc1cccc(NS(=O)(=O)N2CC3CC3C2)c1 (stereo partly drawn) [Example 148, 2,6-dimethylphenyl(3R,4R)-3-(3-((3-azabicyclo[3.1.0]hex-3-ylsulfonyl)amino)phenoxy)-4-methoxypyrrolidine-1-carboxylate]"
8,96%,"CCc1ccccc1C(=O)N1C[C@@H](OC)[C@H](Oc2cccc(NS(=O)(=O)N3CC4CC4C3)c2)C1 (stereo partly drawn) [Example 129, N-(3-(((3R,4R)-1-(2-ethylbenzoyl)-4-methoxypyrrolidin-3-yl)oxy)phenyl)-3-azabicyclo[3.1.0]hexane-3-sulfonamide]"
9,111%,"CO[C@@H]1CN(C(=O)c2c(C)cccc2C2CC2)C[C@H]1Oc1cccc(CS(=O)(=O)N(C)C2CCOCC2)c1 (relative stereo) [Example 160, trans-1-(3-((1-(2-cyclopropyl-6-methylbenzoyl)-4-methoxypyrrolidin-3-yl)oxy)phenyl)-N-methyl-N-(tetrahydro-2H-pyran-4-yl)methanesulfonamide]"
10,70%,"CO[C@@H]1CN(C(=O)c2cc(C)ccc2C)C[C@H]1Oc1cccc(CS(=O)(=O)N2CCC23CCOCC3)c1 (relative stereo) [Example 21, trans-(2,5-dimethylphenyl)(3-methoxy-4-(3-((7-oxa-1-azaspiro[3.5]non-1-ylsulfonyl)methyl)phenoxy)pyrrolidin-1-yl)methanone]"
11,87%,"CO[C@@H]1CN(C(=O)c2cc(C)ccc2C)C[C@H]1Oc1cccc(NS(=O)(=O)N2CCOCC2)c1 (relative stereo) [Example 4, trans-N-(3-((1-(2,5-dimethylbenzoyl)-4-methoxypyrrolidin-3-yl)oxy)phenyl)morpholine-4-sulfonamide]"
12,82%,"CO[C@@H]1CN(C(=O)c2cc(C)ccc2C)C[C@H]1Oc1cccc(NS(=O)(=O)N2CCC3(CC3)C2)c1 (relative stereo) [Example 69, trans-N-(3-((1-(2,5-dimethylbenzoyl)-4-methoxypyrrolidin-3-yl)oxy)phenyl)-5-azaspiro[2.4]heptane-5-sulfonamide]"
13,83%,"CCc1cccc(C)c1C(=O)N1C[C@@H](OC)[C@H](Oc2cccc(CS(=O)(=O)N(CC)C3CCOCC3)c2)C1 [Example 158, N-ethyl-1-(3-(((3R,4R)-1-(2-ethyl-6-methylbenzoyl)-4-methoxypyrrolidin-3-yl)oxy)phenyl)-N-(tetrahydro-2H-pyran-4-yl)methanesulfonamide]"
14,94%,"CO[C@@H]1CN(C(=O)c2cc(C)ccc2C)C[C@H]1Oc1cccc(NS(=O)(=O)N(C)C2CCOC2)c1 (relative stereo) [Example 46, trans-N′-(3-((1-(2,5-dimethylbenzoyl)-4-methoxypyrrolidin-3-yl)oxy)phenyl)-N-methyl-N-(tetrahydrofuran-3-yl)sulfuric diamide]"
15,38%,"CO[C@@H]1CN(C(=O)Oc2ccccc2C)C[C@H]1Oc1cccc(NS(=O)(=O)N2CC3CC3C2)c1 (stereo partly drawn) [Example 138, 2-methylphenyl(3R,4R)-3-(3-((3-azabicyclo[3.1.0]hex-3-ylsulfonyl)amino)phenoxy)-4-methoxypyrrolidine-1-carboxylate]"
16,108%,"CCc1cccc(C)c1C(=O)N1C[C@@H](OC)[C@H](Oc2cccc(NS(=O)(=O)N3CC4CC4C3)c2)C1 (stereo partly drawn) [Example 134, N-(3-(((3R,4R)-1-(2-ethyl-6-methylbenzoyl)-4-methoxypyrrolidin-3-yl)oxy)phenyl)-3-azabicyclo[3.1.0]hexane-3-sulfonamide]"
17,108%,"CO[C@@H]1CN(C(=O)c2c(C)cccc2C2CC2)C[C@H]1Oc1cccc(NS(=O)(=O)N(C)C2CCOCC2)c1 (relative stereo) [Example 165, trans-N′-(3-((1-(2-cyclopropyl-6-methylbenzoyl)-4-methoxypyrrolidin-3-yl)oxy)phenyl)-N-methyl-N-(tetrahydro-2H-pyran-4-yl)sulfuric diamide]"
18,84%,"CO[C@@H]1CN(C(=O)c2cc(C)ccc2C)C[C@H]1Oc1cccc(NS(=O)(=O)N2CCC(C)C2)c1 (relative stereo) [Example 68, trans-N-(3-((1-(2,5-dimethylbenzoyl)-4-methoxypyrrolidin-3-yl)oxy)phenyl)-3-methylpyrrolidine-1-sulfonamide]"
19,93%,"COc1cccc(OC)c1C(=O)N1C[C@@H](OC)[C@H](Oc2cccc(CS(=O)(=O)N3CCCC3c3ccccn3)c2)C1 (relative stereo) [Example 100, trans-(2,6-dimethoxyphenyl)(3-methoxy-4-(3-(((2-(pyridin-2-yl)pyrrolidin-1-yl)sulfonyl)methyl)phenoxy)pyrrolidin-1-yl)methanone]"
20,108%,"CCc1cccc(C)c1C(=O)N1C[C@@H](OC)[C@H](Oc2cccc(CS(=O)(=O)N(C)C3CCOCC3)c2)C1 (relative stereo) [Example 155, trans-1-(3-((-1-(2-ethyl-6-methylbenzoyl)-4-methoxypyrrolidin-3-yl)oxy)phenyl)-N-methyl-N-(tetrahydro-2H-pyran-4-yl)methanesulfonamide]"
21,94%,"CO[C@@H]1CN(C(=O)c2cc(C)ccc2C)C[C@H]1Oc1cccc(CS(=O)(=O)N(C)C2CCOCC2)c1 (relative stereo) [Example 31, trans-1-(3-((1-(2,5-dimethylbenzoyl)-4-methoxypyrrolidin-3-yl)oxy)phenyl)-N-methyl-N-(tetrahydro-2H-pyran-4-yl)methanesulfonamide]"
22,99%,"CO[C@@H]1CN(C(=O)c2cc(C)ccc2C)C[C@H]1Oc1cccc(NS(=O)(=O)N2CCC(c3cccnc3)C2)c1 (relative stereo) [Example 53, trans-N-(3-((1-(2,5-dimethylbenzoyl)-4-methoxypyrrolidin-3-yl)oxy)phenyl)-3-(pyridin-3-yl)pyrrolidine-1-sulfonamide]"
23,115%,"COC1CN(C(=O)c2cc(C)ccc2C)CC1Oc1cccc(CS(=O)(=O)N(C)[C@@H]2CCOC[C@H]2F)c1 (relative stereo) [Example 142, trans-1-(3-((1-(2,5-dimethylbenzoyl)-4-methoxypyrrolidin-3-yl)oxy)phenyl)-N-(3-fluorotetrahydro-2H-pyran-4-yl)-N-methylmethanesulfonamide]"
24,37%,"CO[C@@H]1CN(C(=O)C2(c3ccccc3)CCC2)C[C@H]1Oc1cccc(CS(=O)(=O)N(C)C2CCOCC2)c1 (relative stereo) [Example 147, trans-1-(3-((4-methoxy-1-((1-phenylcyclobutyl)carbonyl)pyrrolidin-3-yl)oxy)phenyl)-N-methyl-N-(tetrahydro-2H-pyran-4-yl)methanesulfonamide]"
25,75%,"COC1CN(C(=O)c2cc(C)ccc2C)CC1Oc1cccc(CS(=O)(=O)N2CCCC2c2ccccc2C)c1 (stereo not drawn) [Example 41, trans-(2,5-dimethylphenyl)(3-methoxy-4-(3-(((2-(2-methylphneyl)pyrrolidin-1-yl)sulfonyl)methyl)phenoxy)pyrrolidin-1-yl)methanone]"
